Assay results taken from ChEMBL document CHEMBL1201862, “PubChem BioAssay data set” (2004).
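48-hour exposure; five concentrations; linearly interpolated endpoints. At the GI50, growth is halved.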 Calls of active or inactive are those of the source. Cut-off read from the data, not from the text of the source: active = GI50 up to about 1.1 µM and inactive = higher.

Assays:
Test in all cases: DTP human tumour cell line panel, 48 h
786-0 = system: 786-0
A498 = system: A498
A549 = system: A549
ACHN = system: ACHN
BT-549 = system: BT-549
CAKI-1 = system: CAKI-1
CCRF-CEM = system: CCRF-CEM
COLO 205 = system: COLO 205
DU-145 = system: DU-145
EKVX = system: EKVX
HCC 2998 = system: HCC 2998
HCT-116 = system: HCT-116
HCT-15 = system: HCT-15
HL-60 = system: HL-60
HOP-62 = system: HOP-62
HOP-92 = system: HOP-92
HT-29 = system: HT-29
Hs-578T = system: Hs-578T
IGROV-1 = system: IGROV-1
K562 = system: K562
KM12 = system: KM12
LOX IMVI = system: LOX IMVI
M14 = system: M14
MCF7 = system: MCF7
MDA-MB-231 = system: MDA-MB-231
MDA-MB-435 = system: MDA-MB-435
MDA-N = system: MDA-N
MOLT-4 = system: MOLT-4
Malme-3M = system: Malme-3M
NCI-H226 = system: NCI-H226
NCI-H23 = system: NCI-H23
NCI-H460 = system: NCI-H460
NCI-H522 = system: NCI-H522
NCI/ADR-RES = system: NCI/ADR-RES
OVCAR-3 = system: OVCAR-3
OVCAR-5 = system: OVCAR-5
OVCAR-8 = system: OVCAR-8
PC-3 = system: PC-3
RPMI-8226 = system: RPMI-8226
RXF 393 = system: RXF 393
SF-268 = system: SF-268
SF-295 = system: SF-295
SF-539 = system: SF-539
SK-MEL-28 = system: SK-MEL-28
SK-MEL-5 = system: SK-MEL-5
SK-OV-3 = system: SK-OV-3
SN12C = system: SN12C
SNB-19 = system: SNB-19
SNB-75 = system: SNB-75
SR = system: SR
SW-620 = system: SW-620
T47D = system: T47D
TK-10 = system: TK-10
U-251 = system: U-251
UACC-257 = system: UACC-257
UACC-62 = system: UACC-62
UO-31 = system: UO-31
OVCAR-4 = system: OVCAR-4
SK-MEL-2 = system: SK-MEL-2

COC(=O)C(C)(NC(=O)C(CC(=O)OC(C)(C)C)NC(=O)OC(C)(C)C)c1ccccc1 (stereo unspecified)
GI50 (786-0): > 100 µM (inactive) | GI50 (A498): 54.3 µM (inactive) | GI50 (A549): > 100 µM (inactive) | GI50 (ACHN): > 100 µM (inactive) | GI50 (BT-549): > 100 µM (inactive) | GI50 (CAKI-1): > 100 µM (inactive) | GI50 (CCRF-CEM): > 100 µM (inactive) | GI50 (COLO 205): > 100 µM (inactive) | GI50 (DU-145): > 100 µM (inactive) | GI50 (EKVX): > 100 µM (inactive) | GI50 (HCC 2998): > 100 µM (inactive) | GI50 (HCT-116): > 100 µM (inactive) | GI50 (HCT-15): > 100 µM | GI50 (HL-60): 81.7 µM (inactive) | GI50 (HOP-62): > 100 µM (inactive) | GI50 (HOP-92): 63 µM (inactive) | GI50 (HT-29): > 100 µM (inactive) | GI50 (Hs-578T): > 100 µM (inactive) | GI50 (IGROV-1): > 100 µM (inactive) | GI50 (K562): > 100 µM (inactive) | GI50 (KM12): > 100 µM (inactive) | GI50 (LOX IMVI): > 100 µM (inactive) | GI50 (M14): > 100 µM (inactive) | GI50 (MCF7): 62.1 µM (inactive) | GI50 (MDA-MB-231): > 100 µM (inactive) | GI50 (MDA-MB-435): > 100 µM (inactive) | GI50 (MDA-N): > 100 µM (inactive) | GI50 (MOLT-4): > 100 µM (inactive) | GI50 (Malme-3M): 40 µM (inactive) | GI50 (NCI-H226): > 100 µM (inactive) | GI50 (NCI-H23): > 100 µM (inactive) | GI50 (NCI-H460): 85.7 µM (inactive) | GI50 (NCI-H522): > 100 µM (inactive) | GI50 (NCI/ADR-RES): 55.1 µM (inactive) | GI50 (OVCAR-3): 49.8 µM (inactive) | GI50 (OVCAR-5): > 100 µM (inactive) | GI50 (OVCAR-8): > 100 µM (inactive) | GI50 (PC-3): > 100 µM (inactive) | GI50 (RPMI-8226): 72.8 µM (inactive) | GI50 (RXF 393): > 100 µM (inactive) | GI50 (SF-268): 7.19 µM (inactive) | GI50 (SF-295): 81.8 µM (inactive) | GI50 (SF-539): > 100 µM (inactive) | GI50 (SK-MEL-28): > 100 µM (inactive) | GI50 (SK-MEL-5): 68.4 µM (inactive) | GI50 (SK-OV-3): > 100 µM (inactive) | GI50 (SN12C): > 100 µM (inactive) | GI50 (SNB-19): > 100 µM (inactive) | GI50 (SNB-75): 8.13 µM (inactive) | GI50 (SR): 73.5 µM (inactive) | GI50 (SW-620): > 100 µM (inactive) | GI50 (T47D): 35.4 µM (inactive) | GI50 (TK-10): > 100 µM (inactive) | GI50 (U-251): > 100 µM (inactive) | GI50 (UACC-257): > 100 µM (inactive) | GI50 (UACC-62): > 100 µM (inactive) | GI50 (UO-31): 26.5 µM (inactive)

CCOC(=O)c1ccc(Nc2cnc3cc(C(F)(F)F)ccc3n2)cc1
GI50 (786-0): 40.3 µM (inactive) | GI50 (A498): > 100 µM (inactive) | GI50 (A549): > 100 µM (inactive) | GI50 (ACHN): > 100 µM (inactive) | GI50 (BT-549): > 100 µM (inactive) | GI50 (CAKI-1): > 100 µM (inactive) | GI50 (CCRF-CEM): > 100 µM (inactive) | GI50 (COLO 205): > 100 µM (inactive) | GI50 (DU-145): > 100 µM (inactive) | GI50 (EKVX): > 100 µM (inactive) | GI50 (HCC 2998): > 100 µM (inactive) | GI50 (HCT-116): 63 µM (inactive) | GI50 (HCT-15): > 100 µM | GI50 (HL-60): > 100 µM (inactive) | GI50 (HOP-62): > 100 µM (inactive) | GI50 (HOP-92): > 100 µM (inactive) | GI50 (HT-29): > 100 µM (inactive) | GI50 (Hs-578T): > 100 µM (inactive) | GI50 (IGROV-1): > 100 µM (inactive) | GI50 (K562): > 100 µM (inactive) | GI50 (KM12): 85.1 µM (inactive) | GI50 (LOX IMVI): > 100 µM (inactive) | GI50 (MCF7): > 10 µM (inactive) | GI50 (MDA-MB-231): > 100 µM (inactive) | GI50 (MDA-MB-435): > 100 µM (inactive) | GI50 (MDA-N): > 100 µM (inactive) | GI50 (MOLT-4): > 100 µM (inactive) | GI50 (Malme-3M): > 100 µM (inactive) | GI50 (NCI-H226): > 100 µM (inactive) | GI50 (NCI-H23): > 100 µM (inactive) | GI50 (NCI-H460): > 100 µM (inactive) | GI50 (NCI-H522): > 100 µM (inactive) | GI50 (NCI/ADR-RES): > 100 µM (inactive) | GI50 (OVCAR-3): > 100 µM (inactive) | GI50 (OVCAR-4): > 100 µM (inactive) | GI50 (OVCAR-5): > 100 µM (inactive) | GI50 (OVCAR-8): > 100 µM (inactive) | GI50 (PC-3): > 100 µM (inactive) | GI50 (RPMI-8226): > 100 µM (inactive) | GI50 (RXF 393): > 10 µM (inactive) | GI50 (SF-268): > 100 µM (inactive) | GI50 (SF-295): > 100 µM (inactive) | GI50 (SF-539): 79.6 µM (inactive) | GI50 (SK-MEL-28): 85.9 µM (inactive) | GI50 (SK-MEL-5): > 100 µM (inactive) | GI50 (SK-OV-3): > 100 µM (inactive) | GI50 (SN12C): > 100 µM (inactive) | GI50 (SNB-75): 44.9 µM (inactive) | GI50 (SR): > 100 µM (inactive) | GI50 (SW-620): > 100 µM (inactive) | GI50 (T47D): > 100 µM (inactive) | GI50 (TK-10): > 100 µM (inactive) | GI50 (U-251): > 100 µM (inactive) | GI50 (UACC-257): > 100 µM (inactive) | GI50 (UACC-62): > 100 µM (inactive) | GI50 (UO-31): > 100 µM (inactive)

CCOC(=O)/C=C1\C[C@H](NC(=O)OCc2ccccc2)C(=O)N1CC(=O)OCC
GI50 (786-0): > 100 µM (inactive) | GI50 (A498): > 100 µM (inactive) | GI50 (A549): > 100 µM (inactive) | GI50 (ACHN): > 100 µM (inactive) | GI50 (BT-549): > 100 µM (inactive) | GI50 (CAKI-1): > 100 µM (inactive) | GI50 (CCRF-CEM): > 100 µM (inactive) | GI50 (COLO 205): > 100 µM (inactive) | GI50 (DU-145): > 100 µM (inactive) | GI50 (EKVX): > 100 µM (inactive) | GI50 (HCC 2998): > 100 µM (inactive) | GI50 (HCT-116): > 100 µM (inactive) | GI50 (HCT-15): > 100 µM | GI50 (HL-60): > 100 µM (inactive) | GI50 (HOP-62): > 100 µM (inactive) | GI50 (HOP-92): > 100 µM (inactive) | GI50 (HT-29): > 100 µM (inactive) | GI50 (Hs-578T): > 100 µM (inactive) | GI50 (IGROV-1): > 100 µM (inactive) | GI50 (K562): > 100 µM (inactive) | GI50 (KM12): > 100 µM (inactive) | GI50 (M14): > 100 µM (inactive) | GI50 (MCF7): > 100 µM (inactive) | GI50 (MDA-MB-231): > 100 µM (inactive) | GI50 (MDA-MB-435): > 100 µM (inactive) | GI50 (MDA-N): > 100 µM (inactive) | GI50 (MOLT-4): > 100 µM (inactive) | GI50 (Malme-3M): > 100 µM (inactive) | GI50 (NCI-H226): > 100 µM (inactive) | GI50 (NCI-H23): > 100 µM (inactive) | GI50 (NCI-H460): > 100 µM (inactive) | GI50 (NCI-H522): > 100 µM (inactive) | GI50 (NCI/ADR-RES): > 100 µM (inactive) | GI50 (OVCAR-3): > 100 µM (inactive) | GI50 (OVCAR-4): > 100 µM (inactive) | GI50 (OVCAR-5): > 100 µM (inactive) | GI50 (OVCAR-8): > 100 µM (inactive) | GI50 (PC-3): > 100 µM (inactive) | GI50 (RPMI-8226): > 100 µM (inactive) | GI50 (RXF 393): 61.2 µM (inactive) | GI50 (SF-268): > 100 µM (inactive) | GI50 (SF-295): > 100 µM (inactive) | GI50 (SF-539): > 100 µM (inactive) | GI50 (SK-MEL-28): > 100 µM (inactive) | GI50 (SK-MEL-2): > 100 µM (inactive) | GI50 (SK-MEL-5): > 100 µM (inactive) | GI50 (SK-OV-3): > 100 µM (inactive) | GI50 (SN12C): > 100 µM (inactive) | GI50 (SNB-19): > 100 µM (inactive) | GI50 (SNB-75): > 100 µM (inactive) | GI50 (SR): > 100 µM (inactive) | GI50 (SW-620): > 100 µM (inactive) | GI50 (T47D): > 100 µM (inactive) | GI50 (TK-10): > 100 µM (inactive) | GI50 (U-251): > 100 µM (inactive) | GI50 (UACC-257): > 100 µM (inactive) | GI50 (UACC-62): > 100 µM (inactive) | GI50 (UO-31): > 100 µM (inactive)
